{"source": "paper PMC3256935", "about": "(Journal of Medicinal Chemistry, 2011)", "biological_target": "T1, TbNMT (Trypanosoma brucei brucei, UniProt Q388H8)", "T1 sequence (Q388H8 1-446)": "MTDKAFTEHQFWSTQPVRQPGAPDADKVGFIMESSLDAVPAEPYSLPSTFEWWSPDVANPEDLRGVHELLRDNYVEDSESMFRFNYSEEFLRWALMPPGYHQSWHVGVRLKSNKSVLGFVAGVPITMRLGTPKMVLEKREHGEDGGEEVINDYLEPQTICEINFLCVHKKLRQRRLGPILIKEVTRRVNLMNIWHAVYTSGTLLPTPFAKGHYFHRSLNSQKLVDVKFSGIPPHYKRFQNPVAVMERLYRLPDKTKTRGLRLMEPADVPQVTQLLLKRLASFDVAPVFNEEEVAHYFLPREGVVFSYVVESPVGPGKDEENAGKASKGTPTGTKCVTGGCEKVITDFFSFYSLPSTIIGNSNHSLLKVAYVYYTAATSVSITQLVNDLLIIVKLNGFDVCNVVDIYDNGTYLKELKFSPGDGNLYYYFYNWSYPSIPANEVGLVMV", "test": "biochemical"}
{"smiles": "Cc1nn(C)c(C)c1NCc1ccc(Br)cc1", "note": "[Compound 21]", "values": [{"measurement": "IC50", "value": "> 100", "unit": "µM"}]}
